Laboratory results reported in patent US6645915B1, “Substituted 1,3,5- triazines” (Nihon Bayer Agrochem K. K., priority 1998, dated 2003).

Experiments:
[1] = logP by reversed-phase HPLC (EEC Directive 79/831 Annex V.A8); type: physicochemical; conditions: acetonitrile gradient; for logP: HPLC, reversed-phase C 18, 43° C., acidic range a): 0.1% aqueous phosphoric acid; for chromatographic logP: reversed-phase C18 HPLC column; HPLC, reversed-phase C 18, 43° C., acidic range a): 0.1% aqueous phosphoric acid
Protocol: The logP values given in Table 1 were determined in accordance with EEC Directive 79/831 Annex V.A8 by HPLC (High Performance Liquid Chromatography) using a reversed-phase column (C 18). Temperature: 43° C.
(a) Mobile phase for the determination in the acidic range: 0.1% aqueous phosphoric acid, acetonitrile; linear gradient from 10% acetonitrile to 90% acetonitrile—the corresponding data in Table 1 are labelled^a).
Calibration was carried out using unbranched alkan-2-ones (having from 3 to 16 carbon atoms) with known logP values (the logP values were determined using the retention times, by linear interpolation between two successive alkanones).

Amaranthus [2] = assay: Post-emergence test B-1 / greenhouse; type: in vivo; conditions: 500 g of ai./ha, rated after three weeks, 0% = no effect, 100% = total destruction
Protocol: (§1) To produce a suitable preparation of active compound, 1 part by weight of active compound is mixed with the stated amount of solvent, the stated amount of emulsifier is added and the concentrate is diluted with water to the desired concentration.
(§2) Test plants of a height of 5-15 cm are sprayed with the preparation of active compound such that the particular amounts of active compound desired are applied per unit area. The concentration of the spray liquor is chosen so that the particular amounts of active compound desired are applied in 1000 l of water/ha.
(§3) After three weeks, the degree of damage to the plants is rated in % damage in comparison to the development of the untreated control.
(§4) 0%=no effect (like untreated control)

Setaria = assay: Post-emergence test B-1 / greenhouse; type: in vivo; conditions: 500 g of ai./ha, rated after three weeks, 0% = no effect, 100% = total destruction
Protocol: as §1, §2, §3, §4

Sinapis = assay: Post-emergence test B-1 / greenhouse; type: in vivo; conditions: 500 g of ai./ha, rated after three weeks, 0% = no effect, 100% = total destruction
Protocol: as §1, §2, §3, §4

Xanthium = assay: Post-emergence test B-1 / greenhouse; type: in vivo; conditions: 500 g of ai./ha, rated after three weeks, 0% = no effect, 100% = total destruction
Protocol: as §1, §2, §3, §4

weeds [3] = assay: Post-emergence test B-1; type: in vivo; conditions: post-emergence test B-1, in words
Protocol: as §1, §2, §3, §4

Maize [4] = assay: Post-emergence test B-1 / greenhouse; type: in vivo; conditions: 500 g of ai./ha, rated after three weeks, 0% = no effect, 100% = total destruction
Protocol: as §1, §2, §3, §4

[5] = tested on: Echinocloa crus galli, Setaria viridis, Amaranthus lividus and Polygonum blumei MEISSN; assay: Post-emergence test B-2; type: in vivo; conditions: post-emergence test B-2, plants in 2-leaf stage, rated after three weeks, in words
Protocol: as §1
Test plants (Echinocloa crus galli, Setaria viridis, Amaranthus lividus and Polygonum blumei MEISSN) which, on average, are in the 2-leaf stage, are sprayed with the preparation of active compound such that the particular amounts of active compound desired are applied per unit area.
as §3, §4

[6] = tested on: Echinocloa crus galli, Setaria viridis, Amaranthus lividus and Polygonum blumei MEISSN; assay: Pre-emergence test A-2; type: in vivo; conditions: pre-emergence test A-2, rated after four weeks, in words
Protocol: as §1
Seeds of the test plants (Echinocloa crus galli, Setaria viridis, Amaranthus lividus and Polygonum blumei MEISSN) are sown in normal soil. The soil is sprayed with the preparation of active compound such that the particular amount of active compound desired is applied per unit area.
After four weeks, the degree of damage to the plants is rated in % damage in comparison to the development of the untreated controls.
as §4

Abutilon [7] = assay: Pre-emergence test A-1 / greenhouse; type: in vivo; conditions: 500 g of ai./ha, rated after three weeks, 0% = no effect, 100% = total destruction
Protocol: as §1
(§5) Seeds of the test plants are sown in normal soil. After about 24 hours, the soil is sprayed with the preparation of active compound such that the particular amount of active compound desired is applied per unit area. The concentration of the spray liquor is chosen so that the particular amount of active compound desired is applied in 1000 litres of water per hectare.
as §3, §4

Amaranthus [8] = assay: Pre-emergence test A-1 / greenhouse; type: in vivo; conditions: 500 g of ai./ha, rated after three weeks, 0% = no effect, 100% = total destruction
Protocol: as §1, §5, §3, §4

Maize [9] = assay: Pre-emergence test A-1 / greenhouse; type: in vivo
Protocol: as §1, §5, §3, §4

weeds [10] = assay: Pre-emergence test A-1; type: in vivo; conditions: pre-emergence test A-1, in words
Protocol: as §1, §5, §3, §4

Abutilon [11] = assay: Post-emergence test B-1 / greenhouse; type: in vivo; conditions: 500 g of ai./ha, rated after three weeks, 0% = no effect, 100% = total destruction
Protocol: as §1, §2, §3, §4

Row | Compound | logP [1] | % damage, Amaranthus (Amaranthus [2]) [%] | % damage, Setaria (Setaria) [%] | % damage, Sinapis (Sinapis) [%] | action against weeds (weeds [3]) | further results
1 | CC(Nc1nc(N)nc(C(F)(F)Cl)n1)C1CCCCC1 (racemic) [Example 6] | logP = 3.51^a) (racemate) | 100 | 100 | 100 | strong action | % damage, Xanthium (Xanthium): 100%
2 | CC(Nc1nc(N)nc(C(C)(C)F)n1)C1CCCCC1 (racemic) [Example 7] | logP = 1.93^a) (racemate) | 100 | 100 | 100 | strong action | % damage, Xanthium (Xanthium): 100%
3 | CCC(=O)Nc1nc(NC(C)C2CCCCC2)nc(C(F)(F)Cl)n1 (racemic) [Example 8] | logP = 4.23^a) (racemate) | 100 | 100 | 100 | strong action | % damage, Xanthium (Xanthium): 100%
4 | CCC(=O)Nc1nc(NC(C)C2CCCCC2)nc(C(C)(C)F)n1 (racemic) [Example 9] | logP = 3.30^a) (racemate) | 95 | 90 | 100 | strong action | % damage, Maize (Maize [4]): 30%
5 | CCCC(C)Nc1nc(N)nc(C(C)(C)F)n1 (racemic) [Example 28] | – | – | – | – | – | action against the abovementioned weeds [5]: strong action
6 | CC(C)CC(C)Nc1nc(N)nc(C(C)(C)F)n1 (racemic) [Example 29] | – | – | – | – | – | action against the abovementioned weeds [5]: strong action
7 | CC(C)CCCC(C)Nc1nc(N)nc(C(C)(C)F)n1 (racemic) [Example 31] | – | – | – | – | – | action against the abovementioned weeds [5]: strong action
8 | CCC(CC)Nc1nc(N)nc(C(C)F)n1 (racemic) [Example 32] | – | – | – | – | – | action against the abovementioned weeds [6]: strong action
9 | C[C@H](Nc1nc(N)nc([C@@H](C)F)n1)C1CCCCC1 [Example 1, (R,S)-N′-(1-cyclohexyl-ethyl)-6-(1-fluoro-ethyl)-1,3,5-triazine-2,4-diamine] | – | 100 | 100 | 100 | strong action | chromatographic logP [1]: 1.83; % damage, Abutilon (Abutilon [7]): 80%; % damage, Amaranthus (Amaranthus [8]): 100%; tolerance by crop plants, such as maize (Maize [9]; pre-emergence test A-1, in words): tolerated very well; % damage, Maize (Maize [9]; pre-emergence, 500 g of ai./ha, rated after three weeks, 0% = no effect, 100% = total destruction): 0%; action against weeds (weeds [10]): strong action; % damage, Xanthium (Xanthium): 100%
10 | CCC(=O)Nc1nc(N[C@@H](C)C2CCCCC2)nc([C@@H](C)F)n1 [Example 2, (R,S)-N-[4-(1-cyclohexyl-ethylamino)-6-(1-fluoro-ethyl)-1,3,5-triazin-2-yl]-propionamide] | – | 100 | 100 | 100 | strong action | chromatographic logP [1]: 3.14; % damage, Xanthium (Xanthium): 100%
11 | C[C@H](Nc1nc(NC=O)nc([C@@H](C)F)n1)C1CCCCC1 [Example 3, (R,S)-N-[4-(1-cyclohexyl-ethylamino)-6-(1-fluoro-ethyl)-1,3,5-triazin-2-yl]-formamide] | – | 100 | 100 | 100 | strong action | chromatographic logP [1]: 3.04; % damage, Abutilon (Abutilon [11]): 90%; melting point: 127 °C
12 | CCC(=O)Nc1nc(N[C@H](C)C2CCCCC2)nc(C(C)F)n1 (stereo partly shown) [Example 15] | logP = 3.11^a) (R enantiomer) | – | – | – | – | –
13 | CCC(=O)Nc1nc(N[C@H](C)C2CCCCC2)nc(C(C)(C)F)n1 [Example 16] | logP = 3.25^a) (R enantiomer) | – | – | – | – | –
14 | CCC(=O)Nc1nc(N[C@H](C)C2CCCCC2)nc(C(Cl)Cl)n1 [Example 17] | logP = 2.93^a) (R enantiomer) | – | – | – | – | –
15 | CCC(=O)Nc1nc(N[C@@H](C)C2CCCCC2)nc(C(C)F)n1 (stereo partly shown) [Example 21] | logP = 3.11^a) (S enantiomer) | – | – | – | – | –
16 | CCC(=O)Nc1nc(N[C@@H](C)C2CCCCC2)nc(C(C)(C)F)n1 [Example 22] | logP = 3.26^a) (S enantiomer) | – | – | – | – | –
17 | CCC(=O)Nc1nc(N[C@@H](C)C2CCCCC2)nc(C(Cl)Cl)n1 [Example 23] | logP = 2.93^a) (S enantiomer) | – | – | – | – | –
18 | CCC(CC)Nc1nc(N)nc(C(C)(C)F)n1 [Example 33] | – | – | – | – | – | action against the abovementioned weeds [6]: strong action
19 | CCC(CC)Nc1nc(NC(C)=O)nc(C(C)(C)F)n1 [Example 34] | – | – | – | – | – | action against the abovementioned weeds [6]: strong action
20 | N-(1-ethylpropyl)-6-(1-fluoro-1-methylethyl)-1,3,5-triazine-2,4-diamine [Example 4] | – | 100 | 100 | 100 | strong action | % damage, Xanthium (Xanthium): 100%
21 | N-acetyl-N′-(1-ethylpropyl)-6-(1-fluoro-1-methylethyl)-1,3,5-triazine-2,4-diamine [Example 5] | – | 100 | 95 | 95 | strong action | % damage, Abutilon (Abutilon [11]): 90%
